Assay results taken from patent US20180296588A1, “COMBINATION THERAPY FOR TREATING VIRAL INFECTIONS” (ContraVir Pharmaceuticals, Inc., priority 2017, published 2018).
Entries after “also recorded” stand apart in the source; their conditions may differ. Read-outs that look alike come from different tables or passages of the source.

Experiments:
[1] = system: HBV DNA replication in DES19 cells; assay: Inhibition of intracellular HBV DNA replication in HepDES19 cells (PCR); format: cell-based; conditions: Hepatitis B virus
Description: (§1) The antiviral activity of Compound I and Compound II towards HBV was tested in various cell lines (HepAD38, HepDE19 and HepDES19). The HepAD38 cell line is derived from the HepG2 cell line and engineered to stably maintain HBV (see Ladner et al., Antimicrobial Agents and Chemotherapy, 1997, 41, 1715-1720, which is incorporated herein by reference in its entirety). DE19 and DES19 cell lines are human hepatoma derived cell lines (see Guo et al. J. Virol 2007, 81, 12472-84, which is incorporated herein by reference in its entirety). Active HBV replication in the cells was suppressed by inclusion of tetracycline in the cell culture medium, which binds to a tetracycline-sensitive promoter, and induced by removal of tetracycline. HBV replication was quantified by measuring the amount of HBV DNA in the cells.
(§2) Compound I and Compound II were applied to induced cells (i.e., cells without tetracycline), either alone or in combination at various concentrations. Next, intracellular DNA was isolated and HBV DNA was measured by polymerase chain reaction (PCR). The percent inhibition of HBV DNA was examined over the concentration ranges of 0-320 nM for Compound I and 0-640 nM for Compound II. Concentration versus effect curves were constructed for both drugs (FIGS. 1A and 1B, 2A and 2B, and 3A and 3B). […] See FIGS. 1B, 2B, and 3B (curves where [Compound II]=0).
(§3) The level of reduction in intracellular HBV DNA by the various combinations of Compound I and II as plotted in FIGS. 1 A and 1B, 2A and 2B, and 3A and 3B, was analyzed using the Shipman-Prichard synergy scoring program (MacSynergy™ II program, Prichard et al. Antiviral Research 1990), wherein the experimentally observed effect of each combination is compared to the theoretical, additive inhibition. The comparison is used to determine combination scores (effect volumes) that represent either synergistic (positive scores) or antagonistic (negative scores) effects. All the positive and negative scores are summed to calculate overall synergy and antagonism scores that reflect the entire concentration spectrum of the two drugs. The magnitude of the scores reflect the degree of synergism/antagonism and the likelihood of the synergistic/antagonistic activities being important in vivo, according to the following four categories: (1) Synergy/Antagonism Volume=0-25 (log volume <2): insignificant synergy/antagonism (i.e., only additive effects); (2) Synergy/Antagonism Volume=25-50 (log volume 2-5): minor but significant amount of synergy/antagonism; (3) Synergy/Antagonism Volume=50-100 (log volume 5-9): moderate synergy/antagonism that may be important in vivo; (4) Synergy/Antagonism Volume >100 (log volume >9): stronger synergy/antagonism that is probably important in vivo. IC50 values for Compound I in combination with different concentrations of Compound II, and Compound II in combination with different concentrations of Compound I, are presented in Tables 6 and 7, respectively.

[2] = system: HBV DNA replication in AD38, DES19 and DE19 cells; assay: In vitro combination study, statements covering AD38, DES19 and DE19 cells together; format: cell-based, hepatitis B virus; conditions: Compound I 5-320 nM and/or Compound II 10-640 nM; FIGS. 1-3
Description: The antiviral activity of Compound I and Compound II towards HBV was tested in various cell lines (HepAD38, HepDE19 and HepDES19). […] Active HBV replication in the cells was suppressed by inclusion of tetracycline in the cell culture medium, which binds to a tetracycline-sensitive promoter, and induced by removal of tetracycline. HBV replication was quantified by measuring the amount of HBV DNA in the cells.
The comparison is used to determine combination scores (effect volumes) that represent either synergistic (positive scores) or antagonistic (negative scores) effects. All the positive and negative scores are summed to calculate overall synergy and antagonism scores that reflect the entire concentration spectrum of the two drugs. […]

[3] = system: HBV DNA replication in DE19 cells; assay: Inhibition of intracellular HBV DNA replication in HepDE19 cells (PCR); format: cell-based; conditions: Hepatitis B virus
Description: as §1, §2, §3

[4] = system: HBV DNA replication in HepAD38 cells; assay: Inhibition of intracellular HBV DNA replication in HepAD38 cells (PCR); format: cell-based; conditions: Hepatitis B virus
Description: as §1, §2, §3

HBV = assay: Anti-HBV effects in the HBV transgenic mouse model; format: in vivo, HBV transgenic mice; conditions: for serum HBsAg / liver HBsAg / serum HBV DNA / serum HBeAg: oral, 16 days; for serum HBsAg: FIG. 7; for liver HBsAg / serum HBV DNA / serum HBeAg: alone or in combination; for liver HBsAg: FIG. 8; for serum HBV DNA: FIG. 9; for serum HBeAg: FIG. 10; for liver HBV DNA (copies per mg liver): once-daily oral gavage 16 days, Compound I 10 or 50, Compound II 5 or 10 mg/kg/day, combination 10+5, FIG. 6
Description: (§4) Compound I and Compound II were administered by once-daily oral gavage for 16 days to HBV transgenic mice which replicated HBV from a 1.3× overlength HBV genome integrated into the mouse genome. Expression occurred mostly in hepatocytes.
Treatment Groups (n=8/Group):
After 16 days of dosing, livers and serum were harvested and the following parameters were measured: a) HBV DNA by quantitative PCR (liver and serum) b) HBsAg by ELISA (liver and serum) c) HBeAg by ELISA (serum)

[5] = Compound I concentration in serum by liquid chromatography-mass spectrometry; format: in vivo, HBV transgenic mice; conditions: 3-hr post-dose on Day 16 of dosing; FIG. 11
Description: as §4
Compound I Concentrations were Measured by Liquid Chromatography-Mass Spectrometry (Serum)

CCCCCCCCCCCCCCCCOCCCOP(=O)(O)CO[C@H](C)Cn1cnc2c(N)ncnc21 [Compound II, 3-(hexadecyloxy)propyl hydrogen ((R)-1-(6-amino-9H-purin 9-yl)propan-2-yloxy)methylphosphonate] showed an IC50 ([1]; HepDES19, read-out: IC50 for Compound II, DES19 cells, Compound I 0 nM) of 252 nM, an IC50 ([1]; HepDES19, read-out: IC50 for Compound II, DES19 cells, Compound I 5 nM) of 237 nM and an IC50 ([1]; HepDES19, read-out: IC50 for Compound II, DES19 cells, Compound I 10 nM) of 228 nM. For the same compound, the IC50 ([1]; HepDES19, read-out: IC50 for Compound II, DES19 cells, Compound I 20 nM) was 180 nM, the IC50 ([1]; HepDES19, read-out: IC50 for Compound II, DES19 cells, Compound I 40 nM) was 190 nM and the IC50 ([1]; HepDES19, read-out: IC50 for Compound II, DES19 cells, Compound I 80 nM) was 188 nM. For the same compound, the IC50 ([1]; HepDES19, read-out: IC50 for Compound II, DES19 cells, Compound I 160 nM) was 86.6 nM, the IC50 ([1]; HepDES19, read-out: IC50 for Compound II, DES19 cells, Compound I 320 nM) was 63.2 nM and the “intracellular HBV DNA compared to induced cells in the absence of the drug” value [2] was “reduced intracellular HBV DNA in a concentration-dependent manner”. For the same compound, the IC50 ([3]; HepDE19, read-out: IC50 for Compound II, DE19 cells, Compound I 0 nM) was 253 nM, the IC50 ([3]; HepDE19, read-out: IC50 for Compound II, DE19 cells, Compound I 5 nM) was 270 nM and the IC50 ([3]; HepDE19, read-out: IC50 for Compound II, DE19 cells, Compound I 10 nM) was 255 nM. The IC50 ([3]; HepDE19, read-out: IC50 for Compound II, DE19 cells, Compound I 20 nM) was 213 nM, the IC50 ([3]; HepDE19, read-out: IC50 for Compound II, DE19 cells, Compound I 40 nM) was 237 nM and the IC50 ([3]; HepDE19, read-out: IC50 for Compound II, DE19 cells, Compound I 80 nM) was 226 nM. It also gave an IC50 ([3]; HepDE19, read-out: IC50 for Compound II, DE19 cells, Compound I 160 nM) of 83.9 nM, an IC50 ([3]; HepDE19, read-out: IC50 for Compound II, DE19 cells, Compound I 320 nM) of 110 nM and an IC50 ([4]; HePAD38, read-out: IC50 for Compound II, AD38 cells, Compound I 0 nM) of 248 nM. It also gave an IC50 ([4]; HePAD38, read-out: IC50 for Compound II, AD38 cells, Compound I 5 nM) of 259 nM, an IC50 ([4]; HePAD38, read-out: IC50 for Compound II, AD38 cells, Compound I 10 nM) of 255 nM and an IC50 ([4]; HePAD38, read-out: IC50 for Compound II, AD38 cells, Compound I 20 nM) of 232 nM. It also gave an IC50 ([4]; HePAD38, read-out: IC50 for Compound II, AD38 cells, Compound I 40 nM) of 232 nM, an IC50 ([4]; HePAD38, read-out: IC50 for Compound II, AD38 cells, Compound I 80 nM) of 229 nM and an IC50 ([4]; HePAD38, read-out: IC50 for Compound II, AD38 cells, Compound I 160 nM) of 104 nM. For the same compound, the IC50 ([4]; HePAD38, read-out: IC50 for Compound II, AD38 cells, Compound I 320 nM) was 99.7 nM, the “serum HBsAg” value (HBV; Compound II alone (5 or 10 mg/kg/day) or with low-dose Compound I (10 mg/kg/day)) was “did not affect serum HBsAg” and the “liver HBsAg” value (HBV) was “did not affect”. For the same compound, the “serum HBV DNA” value (HBV) was “did not affect”, the “serum HBeAg” value (HBV) was “did not affect” and the “liver HBV DNA (copies per mg liver)” value (HBV) was “decreased liver HBV DNA; also recorded: highly efficacious”.
For CC[C@@H]1NC(=O)C([C@H](O)[C@H](C)CCCCCCNC(C)=O)N(C)C(=O)[C@@H](C(C)C)N(C)C(=O)[C@H](CC(C)C)N(C)C(=O)[C@H](CC(C)C)N(C)C(=O)[C@H](C)NC(=O)[C@H](C)NC(=O)[C@@H](CC(C)C)N(C)C(=O)[C@H](C(C)C)NC(=O)[C@H](CC(C)C)N(C)C(=O)[C@H](C)N(C)C1=O (stereo partly shown) [Compound I], the IC50 ([1]; HepDES19, read-out: IC50 for Compound I, DES19 cells, Compound II 0 nM) was 33.4 nM, the IC50 ([1]; HepDES19, read-out: IC50 for Compound I, DES19 cells, Compound II 10 nM) was 29.1 nM and the IC50 ([1]; HepDES19, read-out: IC50 for Compound I, DES19 cells, Compound II 20 nM) was 27.2 nM. For the same compound, the IC50 ([1]; HepDES19, read-out: IC50 for Compound I, DES19 cells, Compound II 40 nM) was 26.4 nM, the IC50 ([1]; HepDES19, read-out: IC50 for Compound I, DES19 cells, Compound II 80 nM) was 27.8 nM and the IC50 ([1]; HepDES19, read-out: IC50 for Compound I, DES19 cells, Compound II 160 nM) was 34.7 nM. The IC50 ([1]; HepDES19, read-out: IC50 for Compound I, DES19 cells, Compound II 320 nM) was 32.4 nM, the IC50 ([1]; HepDES19, read-out: IC50 for Compound I, DES19 cells, Compound II 640 nM) was 22.9 nM and the “intracellular HBV DNA compared to induced cells in the absence of the drug” value [2] was “reduced intracellular HBV DNA in a concentration-dependent manner”. It also gave an IC50 ([3]; HepDE19, read-out: IC50 for Compound I, DE19 cells, Compound II 0 nM) of 32.9 nM, an IC50 ([3]; HepDE19, read-out: IC50 for Compound I, DE19 cells, Compound II 10 nM) of 29.5 nM and an IC50 ([3]; HepDE19, read-out: IC50 for Compound I, DE19 cells, Compound II 20 nM) of 26 nM. The IC50 ([3]; HepDE19, read-out: IC50 for Compound I, DE19 cells, Compound II 40 nM) was 27.3 nM, the IC50 ([3]; HepDE19, read-out: IC50 for Compound I, DE19 cells, Compound II 80 nM) was 27.8 nM and the IC50 ([3]; HepDE19, read-out: IC50 for Compound I, DE19 cells, Compound II 160 nM) was 33.6 nM. It also gave an IC50 ([3]; HepDE19, read-out: IC50 for Compound I, DE19 cells, Compound II 320 nM) of 37.5 nM, an IC50 ([3]; HepDE19, read-out: IC50 for Compound I, DE19 cells, Compound II 640 nM) of 23.3 nM and an IC50 ([4]; HePAD38, read-out: IC50 for Compound I, AD38 cells, Compound II 0 nM) of 32.1 nM. It also gave an IC50 ([4]; HePAD38, read-out: IC50 for Compound I, AD38 cells, Compound II 10 nM) of 31 nM, an IC50 ([4]; HePAD38, read-out: IC50 for Compound I, AD38 cells, Compound II 20 nM) of 26.5 nM and an IC50 ([4]; HePAD38, read-out: IC50 for Compound I, AD38 cells, Compound II 40 nM) of 29.9 nM. It also gave an IC50 ([4]; HePAD38, read-out: IC50 for Compound I, AD38 cells, Compound II 80 nM) of 29.5 nM, an IC50 ([4]; HePAD38, read-out: IC50 for Compound I, AD38 cells, Compound II 160 nM) of 34.5 nM and an IC50 ([4]; HePAD38, read-out: IC50 for Compound I, AD38 cells, Compound II 320 nM) of 38.2 nM. The IC50 ([4]; HePAD38, read-out: IC50 for Compound I, AD38 cells, Compound II 640 nM) was 21 nM, the “liver HBsAg” value (HBV) was “did not affect” and the “serum HBV DNA” value (HBV) was “did not affect”. For the same compound, the “serum HBeAg” value (HBV) was “did not affect”, the “serum HBsAg” value (HBV; high-dose Compound I (50 mg/kg/day)) was “decreased serum HBsAg; also recorded: able to lower serum HBsAg levels” and the “liver HBV DNA (copies per mg liver)” value (HBV) was “decreased liver HBV DNA; also recorded: highly efficacious”. The “serum Compound I concentration” value [5] was “correlated with the effects of Compound I on HBV DNA and HBsAg”.
